The source of these data is US12221449B2, “Pyrrolopyrimidine derivative and use thereof” (WUHAN HUMANWELL INNOVATIVE DRUG RESEARCH AND DEVELOPMENT …, priority 2019, dated 2025).

The structures appear in SMILES notation. pIC50: −log10 of the molar value. ≈ marks a conversion by molar mass, not a printed value. Like-named read-outs stand apart in the source and are kept apart here.

Data set [1] concerns the target ATX enzyme activity in human plasma (Homo sapiens (Human), UniProt Q13822). The experiment in a line: Inhibition test of ATX enzyme activity in human plasma (LPA18:2 formation). The class given is biochemical. Particulars: 37° C., 3 h. The procedure: Whole blood was collected from healthy volunteers and anticoagulated with heparin. The blood collection tubes were centrifuged at 3,000 rpm for 10 min, and the plasma was taken and stored at −80° C. for use.
The compound was serially diluted with DMSO according to the conventional concentration requirements, and then 3 μL of the diluted compound was added to a 96-well plate, and 147 μL of PBS was added to each well containing 3 μL of the compound. After mixing homogenously, 50 μL of the mixture was removed and added to a new 96-well plate. The human plasma was taken out from the −80° C. refrigerator and thawed through rapid shaking in a 37° C. water bath. 50 μL of the human plasma was taken and added to the 96-well plate containing 50 μL of the diluted compound (the final system was 1% DMSO). The group without the compound was set as the positive control group. The 96-well plate was shaken and mixed uniformly, and incubated at 37° C. for 3 h. A blank group was also provided, and the plasma of the blank group was stored at −80° C. The blank group is provided to determine the baseline concentration of endogenous LPA.
After the incubation was finished, the blank group was thawed on ice and transferred to an incubation plate. Excess acetonitrile containing the internal standard LPA17:0 was added to the incubation plate to precipitate the plasma protein. After vortex centrifugation, the supernatant was taken and diluted, and a peak area of LPA18:2 and a peak area of internal standard LPA17:0 were detected using LC-MSMS mass spectrometry.
According to the inhibition rates of different concentrations of the compound, the IC50 value of the compound, which is related to inhibition of ATX enzyme activity in human plasma, was calculated.

The target of the next data set is Autotaxin (ATX) enzyme (Homo sapiens (Human), UniProt Q13822). The experiment in a line: Autotaxin (ATX) enzyme activity inhibition assay (Cayman Autotaxin Inhibitor Screening Assay Kit). Type of data set: biochemical. Particulars: OD405, 37° C., 30 min; read-out: IC50, inhibitory activity on ATX activity. The procedure: Subsequently, the 8 concentrations were diluted with Autotaxin Assay buffer (1×) provided in the kit into 19× compound working solutions (DMSO content was 1.9%). The Autotaxin Assay Reagent (10×) was taken out and diluted by 10 times with Autotaxin Assay Buffer (1×). The Autotaxin Substrate was taken out, dissolved by adding 1.2 mL of Autotaxin Assay Buffer (1×), mixed evenly and stood at room temperature.

Data set [2] deals with hERG channels (CHO cell line stably expressing hERG) (Homo sapiens (Human), UniProt Q12809). Put plainly: Inhibitory effect on hERG by full-automatic electrophysiological patch clamp QPatch. The class given is cell-based. In general terms: The hERG channel carries a current that helps repolarise heart muscle cells.
Experimental: Full-automatic electrophysiological patch clamp QPatch was used to detect the inhibitory effect of compounds on hERG. Cells used in this test were CHO cell line transfected with cDNA of hERG and stably expressing hERG channels (provided by Sophion Bioscience, Denmark), and the cell passage number was P24. The cells were cultured in a medium containing the following components (all purchased from Invitrogen): Ham's F12 medium, inactivated fetal bovine serum (10% (v/v)), hygromycin B (100 μg/ml), and Geneticin (100 μg/ml). CHO hERG cells were grown in a petri dish containing the above-mentioned medium and cultured in an incubator at 37° C. and containing 5% Co2.
The compound to be tested was prepared as a 10 mM stock solution in DMSO solvent, the compound was diluted to 3 mM, 1 mM, 0.3 mM, and 0.1 mM with DMSO, and then the compound was diluted to 30 μM, 10 μM, 3 μM, 1 μM, 0.3 μM and 0.1 μM with the extracellular fluid, so that except that the final concentration of DMSO in the 30 μM compound was 0.3%, the final concentration of DMSO in compound solutions of all other concentrations was 0.1%.
The CHO hERG cells, after being digested and resuspended, were added to the fully automated QPatch system (Sophion, Denmark), and subjected to a test according to the following preset procedure.
After reaching the ruptured whole cell configuration state in the initial stage, the whole cell current was recorded at room temperature (about 25° C.), and the cells were recorded for at least 120 seconds in order to achieve stability. The stable cells were selected for the test. During the whole test, the cell patch clamp was at a voltage of −80 mV, the cell patch clamp voltage was depolarized to +20 mV to activate the hERG potassium channels, and after 2.5 seconds, the cell patch clamp voltage was at −50 mV to eliminate inactivation and generate outward tail current. The peak tail current was used as the value of the hERG current. The voltage mode described above was applied to the cells for electrophysiological tests every 15 seconds. An intracellular liquid containing 0.1% dimethyl sulfoxide (solvent) was added to the cells to establish a baseline, and then the current was allowed to stabilize for 3 min. After the compound solution was added, the cells were kept in the test environment until the effect of the compound reached a steady state or until reaching 4 min. In the test experiments with different concentration gradients of the compound, the compound was added to the clamped cells from low to high concentration. After the compound test was finished, the cells were washed with the extracellular fluid until the current returned to a stable state.
The test data were analyzed by Qpatch analysis software provided by Sophion, Excel, and Graphpad Prism.
Data set [3] is described as follows: Human liver microsome stability test. The class given is in vitro ADME. Particulars: human liver microsomes. Background: Liver microsomes are a subcellular fraction often used to study metabolism.
Experimental: The human liver microsome stability test was performed by incubating the compound and human liver microsomes in vitro. First, the test compound is prepared as a 10 mM stock solution in DMSO solvent, and then the compound was diluted to 0.5 mM with acetonitrile. Human liver microsomes (Corning) were diluted with PBS and prepared as a microsome/buffer solution, which was used to dilute 0.5 mM of the compound into a working solution. […] A deep-well multiwell plate was taken, 30 μL of the working solution and 15 μL of pre-warmed NADPH solution (6 mM) were sequentially added to each well to initiate a reaction, and the reaction was incubated at 37° C. […] After centrifugation, the supernatant was collected, and added with purified water in a ratio of 1:1 to perform LC-MS/MS detection. […] T1/2 was calculated by using Excel.
The test system of data set [4] is idiopathic pulmonary fibrosis model (IPF model) induced by bleomycin. The experiment in a line: IPF model induced by bleomycin in rats. The class given is in vivo, male BN rats. Conditions: 30 mg/kg orally twice a day, 21 days; compared with control compound group; FIG. 1. As to the method: Using male BN rats, 180-240 g, idiopathic pulmonary fibrosis model (IPF model) was induced with a dose of 5 U/kg bleomycin. […] On the second day after the model was established, the animals were orally administered by gavage twice a day, where the administration group was administered with a dose of 30 mg/kg each time, and the solvent control group was administered with a blank solvent, and the administration continued for 21 days. During the administration, the body weight was weighed every three days. On day 21 of administration, alveolar lavage was conducted 2 h after the first administration, the inflammatory cells in the lavage fluid were counted, and the associated biomarkers in the supernatant of the lavage fluid were detected. After lavage, the left lungs of the rats were fixed, and stained with Masson's trichrome staining to score the fibrosis pathology. The remaining lung lobes were cryopreserved. The supernatant of the alveolar lavage fluid and the freshly frozen lung tissue of the three compound groups were taken and detected for a content of TGF-β1 protein and an amount of total protein by using ELISA, and the amount of TGF-β1 per milligram of total protein was calculated.

Data set [5] in a line: Thermodynamic solubility test. The class given is physicochemical. Particulars: thermodynamic from solid. The procedure: The compound was accurately weighed, and the prepared phosphate buffer (pH 7.4), FeSSIF solution (pH 5.8) and FaSSGF solution (pH 1.6) were added to prepare a solution with a concentration of 4 mg/mL, which was shaken at 1,000 rpm for 1 hour, and then incubated overnight at room temperature. After the incubation, the solution was centrifuged at 12,000 rpm for 10 min to remove undissolved particles, and the supernatant was transferred to a new centrifuge tube. The supernatant was diluted appropriately, then added with an acetonitrile solution containing the internal standard, and quantified using a standard curve prepared with the same matrix.

The nature of data set [6]: Pharmacokinetic test in rats. Type of data set: in vivo, male SD rats. Conditions: male, SD, rat, plasma. As to the method:
For the in vivo pharmacokinetic test of rats, 6 male SD rats were used, 180-240 g, fasted overnight. […] The blood samples were centrifuged at 8,000 rpm at 4° C. for 6 min, and plasma was collected and stored at −20° C. The plasma at each time point was taken and added with an acetonitrile solution containing internal standard in 3-5 times the amount, vortexed and mixed for 1 min, and centrifuged at 13,000 rpm at 4° C. for 10 min. The supernatant was collected, added and mixed with water in 3 times the amount. An appropriate amount of the mixture was taken for LC-MS/MS analysis. The main pharmacokinetic parameters were analyzed using WinNonlin 7.0 software with non-compartmental model.

[7] abbreviates: intravenous administration 1 mg/kg.
Where [8] appears, read: oral administration by gavage 10 mg/kg.

hERG channels (CHO cell line stably expressing hERG), sequence (Q12809 whole entry): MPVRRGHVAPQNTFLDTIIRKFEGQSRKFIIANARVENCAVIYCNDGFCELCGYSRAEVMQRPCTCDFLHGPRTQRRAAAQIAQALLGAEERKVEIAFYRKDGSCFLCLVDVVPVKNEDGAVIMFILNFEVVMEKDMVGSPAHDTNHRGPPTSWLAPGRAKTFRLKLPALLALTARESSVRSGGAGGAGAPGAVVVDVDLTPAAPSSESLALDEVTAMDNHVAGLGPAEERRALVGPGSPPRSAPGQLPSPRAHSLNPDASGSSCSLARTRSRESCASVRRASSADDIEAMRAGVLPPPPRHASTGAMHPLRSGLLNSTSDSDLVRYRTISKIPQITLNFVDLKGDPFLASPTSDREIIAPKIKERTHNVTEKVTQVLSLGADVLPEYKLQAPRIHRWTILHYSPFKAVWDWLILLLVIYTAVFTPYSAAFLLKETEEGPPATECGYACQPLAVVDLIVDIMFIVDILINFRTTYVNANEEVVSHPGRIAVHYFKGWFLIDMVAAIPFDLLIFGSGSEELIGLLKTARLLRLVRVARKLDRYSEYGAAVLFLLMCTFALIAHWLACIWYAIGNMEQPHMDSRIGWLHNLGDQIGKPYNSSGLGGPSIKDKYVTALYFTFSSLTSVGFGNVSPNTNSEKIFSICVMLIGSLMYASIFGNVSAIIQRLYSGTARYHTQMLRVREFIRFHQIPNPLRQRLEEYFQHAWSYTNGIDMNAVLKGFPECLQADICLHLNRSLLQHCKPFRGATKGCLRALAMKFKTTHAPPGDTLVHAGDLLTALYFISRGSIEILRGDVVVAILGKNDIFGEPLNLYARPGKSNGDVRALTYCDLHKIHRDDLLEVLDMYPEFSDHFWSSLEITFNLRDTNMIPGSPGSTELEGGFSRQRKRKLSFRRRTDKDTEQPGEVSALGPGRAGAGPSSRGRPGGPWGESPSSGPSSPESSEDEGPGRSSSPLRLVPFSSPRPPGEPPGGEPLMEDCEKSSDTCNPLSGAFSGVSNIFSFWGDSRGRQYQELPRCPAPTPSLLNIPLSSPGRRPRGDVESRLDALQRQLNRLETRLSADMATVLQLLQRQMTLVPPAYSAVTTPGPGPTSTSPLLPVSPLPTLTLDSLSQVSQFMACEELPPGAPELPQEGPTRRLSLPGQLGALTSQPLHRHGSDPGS

The term pIC50 denotes −log10 of the IC50, conventionally taken in molar units. By half-life is commonly meant the time in which the quantity being followed falls by half. The term AUC(0-t) denotes the area under the concentration-time curve up to a stated or last time point. As a reminder, the clearance is the volume of plasma or blood freed of the substance per unit of time. Low readings indicate a low capacity for elimination, high ones a high capacity for elimination. As usually defined, the Cmax is the peak of the concentration-time curve. By Tmax is commonly meant the time at which the peak concentration occurs. For the compound `C[C@@H](Cc1cnn[nH]1)OCC(=O)N1Cc2cnc(NC3Cc4ccccc4C3)nc2C1` [Compound I-2S, (S)-2-((1-(1H-1,2,3-triazol-5-yl)propan-2-yl)oxy)-1-(2-((2,3-dihydro-1H-inden-2-yl)amino)-5,7-dihydro-6H-pyrrolo[3,4-d]pyrimidin-6-yl)ethan-1-one], the negative logarithm of the IC50 (pIC50) in data set [1] was 8.68; at Autotaxin (ATX) enzyme, 8.85; in data set [2] (CHO hERG cells, QPatch), 5.06. Besides, the “hERG IC50/ATX IC50” value in data set [2] (ratio of hERG IC50 (μM) to ATX IC50 (nM)) is listed as 8.87/1.40 = 6.3. In data set [3] (30 min, 37° C., NADPH), the “Remaining percentage (%) of compound after incubation for 30 min” value is given as 42.9%. Besides, the half-life at 1 µM in data set [3] (human) is 26.6 min. Further, the “weight reduction of the animals” value in data set [4] was “significantly less than that of the control compound group”. Besides, the solubility in data set [5] (FaSSGF solution, fassgf or other biorelevant, FaSSGF, pH 1.6, thermodynamic, read-out: Dissolubility FaSSGF (pH 1.6)) amounted to 1240 µg/mL (≈ 2960 µM); in data set [5] (phosphate buffered saline, aqueous buffer, PBS, pH 7.4, thermodynamic, read-out: Dissolubility PBS (pH 7.4)), 73.6 µg/mL (≈ 175 µM). Besides, the AUC(0-t) was determined as 661 ng·h/mL in data set [6] (setting [7]) and 3690 ng·h/mL in data set [6] (setting [8]). In addition, the clearance in data set [6] (setting [7]) is 25.2 mL/min/kg. For the same compound, the half-life in data set [6] (setting [7]) is 20.4 min; in data set [6] (setting [8]) it was 115 min. Also, the Vd in data set [6] (intravenous administration 1 mg/kg, read-out: Vz) came to 0.74 L/kg. The compound further showed a Cmax in data set [6] (setting [8]) of 2420 ng/mL. Moreover, the Tmax in data set [6] (setting [8]) is 25.2 min.
